# Test results reported in patent publication US9376380B2 (University of Pittsburgh—Of the Commonwealth System of …, priority 2011, dated 2016).
# “Also recorded” adds a separate entry of the source.
# How the values were obtained:
# MM cells = assay: Apoptosis and cell cycle protein studies in MM cells; type: cell-based
# Text: Since drug resistance is a prevalent problem in multiple myeloma clinical treatment, the ability of compounds according to this invention to overcome chemoresistance of MM cells against conventional drugs such as dexamethasone or melphalan provides an unexpected advantageous benefit in MM treatment. The present inventors have hypothesized that the cell inhibitory activity of the inventive compounds is due to their ability to activate apoptotic processes.
# Compound (1) also altered certain proteins that are known to play a role in the cell-growth cycle. […] To further explore this observation, the present inventors investigated the effect of compound (1) on several proteins involved in cell G2-M phase transition.
# [1] = system: MM1.S cells expressing shRNA against human CB2; assay: Proliferation in CB2 knockdown MM1.S cells; type: cell-based; conditions: 48 h, [3H]TdR uptake
# Method: (§1) FIG. 3. Inhibitory activity of PAM (compound (1)) in CB2 knockdown or agonist treated cells. (A) CB2 gene silencing in MM1.S cells confirmed by Western blot with CB2antibody. (B) Human MM1.S cells expressing shRNA vector or expressing the specific shRNA against human CB2 were treated with vehicle control (white column), or the indicated concentrations of PAM (black column) for 48 h. Cell proliferation was measured by [^3H]TdR uptake. […] The cell viability and the viable cells/well were determined using trypan blue exclusion assay.
# [2] = system: bone marrow mononuclear cells (MNC); assay: RANKL-induced osteoclast formation in bone marrow mononuclear cells; type: cell-based, murine and human
# Method: FIG. 4. Effects of XIE35 and compound (1) on RANKL-induced osteoclast formation in bone marrow mononuclear cells (MNC). […] Half-medium change was performed every other day using drug-containing media where appropriate. After 5 days, the cells were fixed and stained for TRAP activity using a TRAP-staining kit (Sigma-Aldrich) according to the manufacturer's instructions. Lower panel: Human bone marrow MNCs (1×10^5 per well) were treated with rhRANKL (50 ng/ml) plus rhM-CSF (10 ng/ml), and the respective compounds as described above. After three weeks, differentiation into OCLs was assessed by staining with monoclonal antibody 23c6 using a Vectastatin-ABC-AP kit (Vector Laboratories). The antibody 23c6, which recognizes CD51/61 dimer constituting the OCL vitronectin receptor, was kindly provided by the Bone Biology Center of our university. Images were obtained with an Olympus IX70 microscope. Arrows designate the typical multinucleated osteoclasts with 3 or more nuclei.
# Human MM cell U266 = assay: [3H]-thymidine uptake cell proliferation assay, U266; type: cell-based; conditions: Homo sapiens, U-266; U266, 48 h, [3H]-thymidine uptake; read-out: inhibition of DNA synthesis in MM cells, IC50
# Method: (§2) FIG. 2. Inhibitory effects of CB2 ligands on human MM cell growth. Human MM cell U266 (3×10^4 cells per well in 96-well plate) was exposed to the known CB2 ligands (A) or PAM (B) at indicated concentrations (0-10 μmol/L) for 48 h. Cell proliferation was measured by [^3H]-thymidine uptake assay as described in Materials and Methods. (C) U266 cells (3×10^4 per well in 96-well plate) were treated with PAM at indicated doses for 48 h. Cell viability and the viable cell number per well were determined using trypan blue exclusion assay. (D) Human chemoresistant myeloma cell lines MM.1R (dexamethasone), RPMI-8226/LR5 (melphalan) and their respective parent cells MM.1S and RPMI-8226 were exposed to PAM for 48 h. Cell proliferation was measured by ^3H-thymidine incorporation. The data presented are the mean±SD of at least 3 independent measurements. (E) [S^35]-GTPγS binding assay of different ligands on human CB2 receptor expressed in CHO cells.
# (§3) A tritiated thymidine incorporation assay was carried out to investigate the effects of CB2 ligands on cell proliferation. U266, RPMI-8226 (3×10^4 cells/well), MM.1 S cells (6×10^4 cells/well), and their resistant sublines were cultured in 96-well culture plates with or without drugs for 48 hours. DNA synthesis was measured by ^3H-thymidine uptake as described previously.
# [3] = system: MM.1S and RPMI-8226 cells; assay: [3H]-thymidine incorporation, parent myeloma cell lines; type: cell-based, human; conditions: MM.1S and RPMI-8226, 48 h
# Method: as §2, §3
# [4] = system: MM.1R (dexamethasone) and RPMI-8226/LR5 (melphalan) cells; assay: [3H]-thymidine incorporation, chemoresistant myeloma cell lines; type: cell-based; conditions: Homo sapiens; MM.1R and RPMI-8226/LR5, 48 h; read-out: growth inhibition of chemoresistant myeloma cell lines, IC50
# Method: as §2, §3
# [5] = biological target: T1, human CB2 receptor expressed in CHO cells (Homo sapiens, UniProt P34972); assay: [35S]-GTPγS binding assay; type: biochemical
# T1 construct: expressed in transfected cells; host or cells: CHO cells
# T1 sequence (P34972 whole entry): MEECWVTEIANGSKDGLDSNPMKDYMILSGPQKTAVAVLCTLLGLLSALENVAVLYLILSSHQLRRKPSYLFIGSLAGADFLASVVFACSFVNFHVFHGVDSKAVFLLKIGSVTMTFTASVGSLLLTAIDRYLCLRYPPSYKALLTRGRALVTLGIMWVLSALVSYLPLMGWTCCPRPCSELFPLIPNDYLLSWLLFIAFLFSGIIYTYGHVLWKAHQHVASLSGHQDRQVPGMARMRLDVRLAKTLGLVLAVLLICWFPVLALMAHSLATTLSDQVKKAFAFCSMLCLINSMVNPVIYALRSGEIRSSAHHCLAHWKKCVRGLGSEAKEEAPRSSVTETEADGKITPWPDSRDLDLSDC
# CB2 receptor [6] = biological target: T2, CB2 receptor (Homo sapiens, UniProt P34972); assay: [3H]CP-55,940 radioligand competition binding, CB2; design: host or cells: cell membrane preparations
# T2 sequence (P34972 whole entry): as above
# Method: Briefly, the bioassay is carried out using the Perkin Elmer 96-well Top Counter. […] The procedure is as follows.
# In competition binding experiments, the tested compound dilutions are carried out in duplicate in TME buffer (25 mM Tris, 5 mM MgCl2, 1 mM EDTA) containing 0.1% (w/v) fatty acid free bovine serum albumin (BSA), pH 7.4. […] TME buffer and cell membrane preparations expressing CB receptors (5 μg per well) are added to a final volume of 200 μL. […] After the binding suspensions are incubated at 30° C. for 1 hr, the reaction is terminated by rapid filtration through microfiltration plates (Unifilter GF/B filterplate, PerkinElmer), followed by 5 washes with ice cold TME buffer containing 0.1% BSA on a Packard Filtermate Harvester (PerkinElmer). The plates are then dried overnight and 30 μl MicroScint 0 scintillation cocktail is added to each well of the dried filter plates. The bound radioactivity is then counted using a Perkin Elmer 96-well TopCounter. […] This assay is used for determination of the binding affinity parameters (Ki) of ligand-receptor interactions for the CB receptor.
# U266 cells = assay: Trypan blue viability of U266 cells with CB2 agonist; type: cell-based, human; conditions: Win55212-2 or CP55940, 48 h
# Method: as §1
# CB2 receptor [7] = biological target: T2, CB2 receptor; assay: Cell-based cAMP assay
# Text: Cell-based cAMP assays were used to identify the mode by which the CB2 ligands according to the present invention modulate CB2 receptor.
structure (smiles),measurement,setting,value
"CN(C)c1ccc(C(NC(=O)Cc2ccccc2)NC(=O)Cc2ccccc2)cc1 [Compound 1, N,N′-((4-(dimethylamino)phenyl)methylene)bis(2-phenylacetamide)]",ER stress-induced transcription factor CHOP,MM cells,transiently upregulated
same,H2A.X phosphorylation,MM cells,did not have any effect
same,MAPK family members in treated MM cells,MM cells,not up regulated
same,effect on Cdc25C activation of Cdc2,MM cells,prevents the tyrosine phosphatase Cdc25C from activating cyclin-B bound Cdc2
same,number of cells in the G0-G1 phase,MM cells; various concentrations,does not change
same,number of cells in the S-phase and G2-M phase,MM cells; various concentrations,decreased in a dose dependent manner
same,anti-MM activity after stable knockout of CB2,[1],largely abrogated
same,RANKL/M-CSF induced osteoclast formation,"[2]; 1 μM, murine 5 days, human three weeks",anti-osteoclast activity; also recorded: completely blocking osteoclast formation
same,toxicity,[2]; concentrations as high as 1 μM,non-toxic
same,IC50,Human MM cell U266,1250 nM
same,growth inhibitory effect on parent cells,[3],no growth inhibitory effect
same,IC50,[4],600 to 1200 nM
same,CB2 receptor modulatory activity ([35S]-GTPγS),[5],inverse CB2 receptor agonist
same,SI: selectivity index for CB2,CB2 receptor [6]; Ki(CB1)/Ki(CB2) ratio,>26
same,Ki,"CB2 receptor [6]; [3H]CP-55,940 displacement, read-out: Ki (CB2)",777 nM
same,inhibition of MM cell growth after pretreatment with CB2 agonist,U266 cells,attenuated
same,mode of CB2 modulation (c-AMP studies),CB2 receptor [7],inverse agonist
